From patent publication EP0641797A1, “Cephem derivatives and antimicrobial agents containing the same” (KATAYAMA SEIYAKUSYO CO. Ltd., priority 1993, dated 1995)
≈ marks a conversion by molar mass, not a printed value.

How the values were obtained:
Test in all cases: MIC on standard strains, standard method of Japan Society of Chemotherapy
Type in all cases: cell-based
A. calcoaceticos T59 = details: read-out: MIC
Protocol: (§1) Antimicrobial activity of the compounds of the present invention were measured using CTM (cefotiam) and FMOX (flomoxef) as control drugs in accordance with the standard method of Japan Society of Chemotherapy. Of the 25 standard strains used in this test, Staphylococcus aureus 167 and Staphylococcus aureus 195 belong to MRSA.
(§2) In these tables, drugs tested are shown by the corresponding examples in which they were synthesized.

A. faecalis ATCC 3750 = details: Alcaligenes faecalis, ATCC3750, A. faecalis ATCC 3750; read-out: MIC
Protocol: as §1, §2

B. subtilis ATCC 6633 = details: Bacillus subtilis, ATCC6633, B. subtilis ATCC 6633; read-out: MIC
Protocol: as §1, §2

C. freundii ATCC 8090 = details: Citrobacter freundii, ATCC8090, C. freundii ATCC 8090; read-out: MIC
Protocol: as §1, §2

E. cloacae ATCC 13407 = details: Enterobacter cloacae, ATCC13407, E. cloacae ATCC 13407; read-out: MIC
Protocol: as §1, §2

E. cloacae Nek39 = details: Enterobacter cloacae, NEK39, E. cloacae Nek39; read-out: MIC
Protocol: as §1, §2

E. coli CSH2(RE45) = details: Escherichia coli
Protocol: as §1, §2

E. coli CSH2(RK1) = details: Escherichia coli
Protocol: as §1, §2

E. coli NHIJ JC-2 = details: Escherichia coli, NHIJJC2
Protocol: as §1, §2

K. pneuminiae IFO 3317 = test system: K. pneuminiae IFO 3317
Protocol: as §1, §2

K. pneuminiae No. 42 = test system: K. pneuminiae No. 42
Protocol: as §1, §2

M. luteus ATCC 9341 = details: Micrococcus luteus, ATCC9341
Protocol: as §1, §2

M. morganii IFO 3848 = details: Morganella morganii, IFO3848
Protocol: as §1, §2

P. aeruginosa AKR17 = details: Pseudomonas aeruginosa
Protocol: as §1, §2

P. aeruginosa NCTC 10490 = details: Pseudomonas aeruginosa, NCTC10490, P. aeruginosa NCTC 10490; read-out: MIC
Protocol: as §1, §2

P. cepacia = details: Burkholderia cepacia, read-out: MIC
Protocol: as §1, §2

P. mirabilis IFO 3849 = details: Proteus mirabilis, IFO3849, P. mirabilis IFO 3849; read-out: MIC
Protocol: as §1, §2

P. vulugaris OX-19 = test system: P. vulugaris OX-19
Protocol: as §1, §2

S. aureus 167 = details: Staphylococcus aureus; S. aureus 167 (MRSA)
Protocol: as §1, §2

S. aureus 195 = details: Staphylococcus aureus; S. aureus 195 (MRSA)
Protocol: as §1, §2

S. aureus 209p JC-1 = details: Staphylococcus aureus, 209P, read-out: MIC
Protocol: as §1, §2

S. aureus Smith = details: Staphylococcus aureus, read-out: MIC
Protocol: as §1, §2

S. epidemidis IAM 1296 = test system: S. epidemidis IAM 1296
Protocol: as §1, §2

S. marcescens IAM 1184 = details: Serratia marcescens, IAM1184, S. marcescens IAM 1184; read-out: MIC
Protocol: as §1, §2

S. marcescens No. 16-2 = details: Serratia marcescens, NO.162
Protocol: as §1, §2

Row | SMILES | MIC (A. calcoaceticos T59) [µg/mL] | MIC (A. faecalis ATCC 3750) [µg/mL] | MIC (B. subtilis ATCC 6633) [µg/mL] | MIC (C. freundii ATCC 8090) [µg/mL] | MIC (E. cloacae ATCC 13407) [µg/mL] | MIC (E. cloacae Nek39) [µg/mL] | MIC (E. coli CSH2(RE45)) [µg/mL] | MIC (E. coli CSH2(RK1)) [µg/mL] | MIC (E. coli NHIJ JC-2) [µg/mL] | MIC (K. pneuminiae IFO 3317) [µg/mL] | MIC (K. pneuminiae No. 42) [µg/mL] | MIC (M. luteus ATCC 9341) [µg/mL] | MIC (M. morganii IFO 3848) [µg/mL] | MIC (P. aeruginosa AKR17) [µg/mL] | MIC (P. aeruginosa NCTC 10490) [µg/mL] | MIC (P. cepacia) [µg/mL] | MIC (P. mirabilis IFO 3849) [µg/mL] | MIC (P. vulugaris OX-19) [µg/mL] | MIC (S. aureus 167) [µg/mL] | MIC (S. aureus 195) [µg/mL] | other results
1 | Nc1nc(/C(=N/O)C(=O)N[C@@H]2C(=O)N3C(C(=O)[O-])=C(C[n+]4cccc(-c5nsc(N)n5)c4)CS[C@H]23)cs1 [Ex. 12, 7β-[2-(2-aminothiazol-4-yl)-2-syn-hydroxyiminoacetamido]-3-[3-(5-amino-1,2,4-thiadiazol-3-yl)pyridinio]methyl-3-cephem-4-carboxylate] | 12.5 (≈ 22.3 µM) | 1.56 (≈ 2.79 µM) | 0.2 (≈ 0.357 µM) | 0.39 (≈ 0.697 µM) | 3.13 (≈ 5.59 µM) | 100 (≈ 179 µM) | 0.39 (≈ 0.697 µM) | 0.78 (≈ 1.39 µM) | 0.39 (≈ 0.697 µM) | 0.2 (≈ 0.357 µM) | 0.78 (≈ 1.39 µM) | 0.025 (≈ 0.0447 µM) | 0.1 (≈ 0.179 µM) | > 100 | 6.25 (≈ 11.2 µM) | > 100 | 0.39 (≈ 0.697 µM) | 0.39 (≈ 0.697 µM) | 6.25 (≈ 11.2 µM) | 1.56 (≈ 2.79 µM) | MIC (S. aureus 209p JC-1): 0.2 µg/mL (≈ 0.357 µM); MIC (S. aureus Smith): 0.39 µg/mL (≈ 0.697 µM); MIC (S. epidemidis IAM 1296): 0.05 µg/mL (≈ 0.0893 µM); MIC (S. marcescens IAM 1184): 0.78 µg/mL (≈ 1.39 µM); MIC (S. marcescens No. 16-2): 100 µg/mL (≈ 179 µM)
2 | Nc1nc(/C(=N/O)C(=O)N[C@@H]2C(=O)N3C(C(=O)[O-])=C(C[n+]4ccc(-c5nnco5)cc4)CS[C@H]23)cs1 [Ex. 18, 7β-[2-(2-aminothiazol-4-yl)-2-syn-hydroxyiminoacetsmido]-3-[4-(1,3,4-oxadiazol-2-yl)pyridinio]methyl-3-cephem-4-carboxylate] | 25 (≈ 47.3 µM) | 1.56 (≈ 2.95 µM) | 0.78 (≈ 1.48 µM) | 0.39 (≈ 0.738 µM) | 50 (≈ 94.6 µM) | > 100 | 0.39 (≈ 0.738 µM) | 6.25 (≈ 11.8 µM) | 0.2 (≈ 0.378 µM) | 0.2 (≈ 0.378 µM) | 1.56 (≈ 2.95 µM) | 0.2 (≈ 0.378 µM) | 0.05 (≈ 0.0946 µM) | > 100 | 12.5 (≈ 23.7 µM) | > 100 | 0.2 (≈ 0.378 µM) | 0.2 (≈ 0.378 µM) | 25 (≈ 47.3 µM) | 12.5 (≈ 23.7 µM) | MIC (S. aureus 209p JC-1): 0.78 µg/mL (≈ 1.48 µM); MIC (S. aureus Smith): 1.56 µg/mL (≈ 2.95 µM); MIC (S. epidemidis IAM 1296): 0.39 µg/mL (≈ 0.738 µM); MIC (S. marcescens IAM 1184): 0.39 µg/mL (≈ 0.738 µM); MIC (S. marcescens No. 16-2): > 100 µg/mL
3 | NC(=NO)c1ccc[n+](CC2=C(C(=O)[O-])N3C(=O)[C@@H](NC(=O)/C(=N\O)c4csc(N)n4)[C@H]3SC2)c1 [Ex. 19, 7β-[2-(2-aminothiazol-4-yl)-2-syn-hydroxyiminoacetamido]-3-[3-(1-amino-1-hydroxyiminomethyl)pyridinio]methyl-3-cephem-4-carboxylate] | 6.25 (≈ 12.1 µM) | 3.18 (≈ 6.13 µM) | 0.39 (≈ 0.752 µM) | 0.39 (≈ 0.752 µM) | 3.13 (≈ 6.04 µM) | 50 (≈ 96.4 µM) | 0.39 (≈ 0.752 µM) | 0.78 (≈ 1.5 µM) | 0.39 (≈ 0.752 µM) | 0.2 (≈ 0.386 µM) | 0.78 (≈ 1.5 µM) | 0.1 (≈ 0.193 µM) | 0.2 (≈ 0.386 µM) | > 100 | 3.13 (≈ 6.04 µM) | > 100 | 0.39 (≈ 0.752 µM) | 0.39 (≈ 0.752 µM) | 6.25 (≈ 12.1 µM) | 1.56 (≈ 3.01 µM) | MIC (S. aureus 209p JC-1): 0.2 µg/mL (≈ 0.386 µM); MIC (S. aureus Smith): 0.39 µg/mL (≈ 0.752 µM); MIC (S. epidemidis IAM 1296): 0.1 µg/mL (≈ 0.193 µM); MIC (S. marcescens IAM 1184): 0.2 µg/mL (≈ 0.386 µM); MIC (S. marcescens No. 16-2): 100 µg/mL (≈ 193 µM)
4 | Nc1nc(-c2cc[n+](CC3=C(C(=O)[O-])N4C(=O)[C@@H](NC(=O)/C(=N\O)c5csc(N)n5)[C@H]4SC3)cc2)no1 [Ex. 13, 7β-[2-(2-aminothiazol-4-yl)-2-syn-hydroxyiminoacetamido]-3-[4-(5-amino-1,2,4-oxadiazol-3-yl)pyridinio]methyl-3-cephem-4-carboxylate] | 12.5 (≈ 23 µM) | 1.56 (≈ 2.87 µM) | 0.2 (≈ 0.368 µM) | 0.2 (≈ 0.368 µM) | 3.13 (≈ 5.76 µM) | > 100 | 0.39 (≈ 0.718 µM) | 0.39 (≈ 0.718 µM) | 0.2 (≈ 0.368 µM) | 0.2 (≈ 0.368 µM) | 0.78 (≈ 1.44 µM) | 0.025 (≈ 0.046 µM) | 0.1 (≈ 0.184 µM) | > 100 | 1.56 (≈ 2.87 µM) | > 100 | 0.39 (≈ 0.718 µM) | 0.2 (≈ 0.368 µM) | 6.25 (≈ 11.5 µM) | 3.13 (≈ 5.76 µM) | MIC (S. aureus 209p JC-1): 0.2 µg/mL (≈ 0.368 µM); MIC (S. aureus Smith): 0.39 µg/mL (≈ 0.718 µM); MIC (S. epidemidis IAM 1296): 0.1 µg/mL (≈ 0.184 µM); MIC (S. marcescens IAM 1184): 0.39 µg/mL (≈ 0.718 µM); MIC (S. marcescens No. 16-2): 100 µg/mL (≈ 184 µM)
5 | Nc1nc(/C(=N/O)C(=O)N[C@@H]2C(=O)N3C(C(=O)[O-])=C(C[n+]4ccc(-c5ncno5)cc4)CS[C@H]23)ns1 [Ex. 6, 7β-[2-(5-amino-1,2,4-thiadiazol-3-yl)-2-syn-hydroxyiminoacetamido]-3-[4-(1,2,4-oxadiazol-5-yl)pyridinio]methyl-3-cephem-4-carboxylate] | 6.25 (≈ 11.8 µM) | 3.13 (≈ 5.91 µM) | 0.39 (≈ 0.737 µM) | 0.78 (≈ 1.47 µM) | 6.25 (≈ 11.8 µM) | 50 (≈ 94.4 µM) | 0.78 (≈ 1.47 µM) | 1.56 (≈ 2.95 µM) | 0.78 (≈ 1.47 µM) | 0.39 (≈ 0.737 µM) | 1.56 (≈ 2.95 µM) | 0.1 (≈ 0.189 µM) | 0.39 (≈ 0.737 µM) | > 100 | 0.78 (≈ 1.47 µM) | > 100 | 0.78 (≈ 1.47 µM) | 1.56 (≈ 2.95 µM) | 12.5 (≈ 23.6 µM) | 6.25 (≈ 11.8 µM) | MIC (S. aureus 209p JC-1): 0.78 µg/mL (≈ 1.47 µM); MIC (S. aureus Smith): 1.56 µg/mL (≈ 2.95 µM); MIC (S. epidemidis IAM 1296): 0.39 µg/mL (≈ 0.737 µM); MIC (S. marcescens IAM 1184): 0.78 µg/mL (≈ 1.47 µM); MIC (S. marcescens No. 16-2): > 100 µg/mL
